Test results taken from patent US8399490B2, “Insecticides” (Syngenta Crop Protection LLC, priority 2007, dated 2013).

Experiments:
Assay type in all cases: in vivo
[1] = test system: Diabrotica balteata (corn root worm); assay: Example B4: Diabrotica balteata (larvicide, feeding/residual contact activity, preventive), artificial diet MTP; settings: 120 h, L2 larvae on artificial diet, 5 days incubation
Experimental: (§1) Diabrotica balteata (Corn Root Worm) (Larvicide, Feeding/Residual Contact Activity, Preventive) 24-well microtiter plate (MTP) with artificial diet is treated with test solutions by pipetting. After drying, the MTP's are infested with larvae (L2) (6-10 per well). After an incubation period of 5 days, samples are checked for larval mortality, antifeedant and growth regulation.

[2] = test system: Plutella xylostella (diamond back moth); assay: Example B3: Plutella xylostella (larvicide, feeding/residual contact activity, preventive), artificial diet MTP; settings: 120 h, L2 larvae on artificial diet, 5 days incubation
Experimental: as §1, with “Plutella xylostella (Diamond Back Moth)” for “Diabrotica balteata (Corn Root Worm)”, “(10-15” for “(6-10”

[3] = test system: Spodoptera littoralis (Egyptian cotton leafworm); assay: Example B1: Activity against Spodoptera littoralis (larvicide, feeding/residual contact activity, preventive), cotton leaf discs; settings: foliar, 72 h, L1 larvae on cotton leaf discs, 3 days after treatment
Description: Activity Against Spodoptera littoralis (Egyptian Cotton Leafworm)
(Larvicide, Feeding/Residual Contact Activity, Preventive)
The samples are checked for mortality, repellent effect, feeding behaviour, and growth regulation 3 days after treatment. In this test, compounds listed in Table P above show good activity. In particular compounds P.1, P.2, P.3, P.4, P.5, P.6, P.7, P.8, P.9, P.10, P.11, P.12, P.13, P.14, P.15, P.16, P.17, P.18, P.19, P.20, P.21, P.22, P.23, P.24, P.25, P.26, P.27, P.28, P.29, P.30, P.31, P.32, P.33, P.34, P.35, P.36, P.37, P.38, P.39, P.40, P.41, P.42, P.43, P.44, P.46, P.50, P.51, P.52, P.55, P.56, P.57, P.58, P.59, P.60, P61, P.66, P.67, P.68, P.69, P.70, P.71, P.72, P.73, P.74, P.75, P.76, P.77, P.78, P.83, P.84, P.87 and P.88 show an activity of over 80% at a concentration of 400 ppm.

[4] = test system: Heliothis virescens (tobacco budworm); assay: Example B2: Activity against Heliothis virescens (ovo-larvicide, feeding/contact activity, curative), eggs on artificial diet; settings: 96 h, 4 days incubation
Experimental: Activity Against Heliothis virescens (Tobacco Budworm) (Ovo-Larvicide, Feeding/Contact Activity, Curative) Eggs (0-24 h old) are placed in 24-well microtiter plate on artificial diet and treated with test solutions by pipetting. After an incubation period of 4 days, samples are checked for egg mortality, larval mortality, and growth regulation.

Measured: pest or weed control at 400 ppm

O=C(NC1(C2CC2)CC1)c1c(NC(=O)c2cc(Cl)nn2-c2ncccc2Cl)c(Cl)cc2c1OCO2 [P.6]
> 80%: all assays above

CC(C)NC(=O)c1c(NC(=O)c2cc(C(F)(F)F)nn2-c2ncccc2Cl)c(Cl)cc2c1C(F)CC2 (centres unmarked) [P.49]
> 80%: [1] | [2] | [4]

CC(C)NC(=O)c1c(NC(=O)c2cc(C(F)F)nn2-c2ncccc2Cl)c(Br)cc2c1OC(C)C2 (centres unmarked) [P.84]
> 80%: [2] | [3] | [4]

CNC(=O)c1c(NC(=O)c2cc(Br)nn2-c2ncccc2Cl)ccc2c1S(=O)(=O)C(C)C2 (centres unmarked) [P.59]
> 80%: [2] | [3] | [4]

O=C(NC1(C2CC2)CC1)c1c(NC(=O)c2cc(Cl)nn2-c2ncccc2Cl)c(Cl)cc2c1OC(F)(F)O2 [P.25]
> 80%: all assays above

CCc1cc2c(c(C(=O)NC)c1NC(=O)c1cc(Br)nn1-c1ncccc1Cl)OC(F)(F)O2 [P.33]
> 80%: [2] | [3] | [4]

CC(C)NC(=O)c1c(NC(=O)c2cc(Br)nn2-c2ncccc2Cl)c(Br)cc2c1S(=O)(=O)C(C)C2 (centres unmarked) [P.87]
> 80%: [2] | [3] | [4]

Cc1cc2c(c(C(=O)NC3(C4CC4)CC3)c1NC(=O)c1cc(Cl)nn1-c1ncccc1Cl)OC(F)(F)O2 [P.32]
> 80%: all assays above

Cc1cc2c(c(C(=O)NC3(C4CC4)CC3)c1NC(=O)c1cc(C(F)(F)F)nn1-c1ncccc1Cl)OCO2 [P.69]
> 80%: all assays above

CC(C)NC(=O)c1c(NC(=O)c2cc(Br)nn2-c2ncccc2Cl)ccc2c1S(=O)(=O)C(C)C2 (centres unmarked) [P.60]
> 80%: all assays above

Cc1cc2c(c(C(=O)NC(C)(C)C)c1NC(=O)c1cc(C(F)F)nn1-c1ncccc1Cl)OCO2 [P.73]
> 80%: all assays above

CCNC(=O)c1c(NC(=O)c2cc(C(F)(F)F)nn2-c2ncccc2Cl)c(C)cc2c1OCO2 [P.68]
> 80%: all assays above

Cc1cc2c(c(C(=O)NCC3CC3)c1NC(=O)c1cc(C(F)(F)F)nn1-c1ncccc1Cl)OC(F)(F)O2 [P.46]
> 80%: all assays above

CNC(=O)c1c(NC(=O)c2cc(C(F)(F)F)nn2-c2ncccc2Cl)c(C)cc2c1OC(F)(F)O2 [P.43]
> 80%: all assays above

CC(C)NC(=O)c1c(NC(=O)c2cc(C(F)(F)F)nn2-c2ncccc2Cl)c(Cl)cc2c1/C(=N/O)CC2 [P.52]
> 80%: [2] | [3] | [4]

Cc1cc2c(c(C(=O)NC3(C4CC4)CC3)c1NC(=O)c1cc(Br)nn1-c1ncccc1Cl)OCO2 [P.78]
> 80%: all assays above

CC(C)NC(=O)c1c(NC(=O)c2cc(C(F)(F)F)nn2-c2ncccc2Cl)c(Cl)cc2c1OCO2 [P.1]
> 80%: all assays above

CC(C)NC(=O)c1c(NC(=O)c2cc(C(F)F)nn2-c2ncccc2Cl)c(Cl)cc2c1OCO2 [P.4]
> 80%: all assays above

CC(C)NC(=O)c1c(NC(=O)c2cc(Br)nn2-c2ncccc2Cl)c(Cl)cc2c1C(F)CC2 (centres unmarked) [P.56]
> 80%: [2] | [3] | [4]

COc1cc(C(=O)Nc2c(C)cc3c(c2C(=O)NC(C)C)OC(F)(F)O3)n(-c2ncccc2Cl)n1 [P.36]
> 80%: all assays above

CC(C)NC(=O)c1c(NC(=O)c2cc(C(F)(F)F)nn2-c2ncccc2Cl)c(Cl)cc2c1C(O)CC2 (centres unmarked) [P.48]
> 80%: [2]

CNC(=O)c1c(NC(=O)c2cc(Br)nn2-c2ncccc2Cl)c(Br)cc2c1OC(F)(F)O2 [P.41]
> 80%: all assays above

Cc1cc2c(c(C(=O)NC3(C4CC4)CC3)c1NC(=O)c1cc(Br)nn1-c1ncccc1Cl)OC(F)(F)O2 [P.28]
> 80%: all assays above

COc1cc(C(=O)Nc2c(Cl)cc3c(c2C(=O)NC2(C4CC4)CC2)OCO3)n(-c2ncccc2Cl)n1 [P.7]
> 80%: [2] | [3] | [4]

Cc1cc2c(c(C(=O)NC(C)(C)C)c1NC(=O)c1cc(C(F)(F)F)nn1-c1ncccc1Cl)OCO2 [P.70]
> 80%: all assays above

CC1Cc2ccc(NC(=O)c3cc(Br)nn3-c3ncccc3Cl)c(C(=O)NC3CC3)c2S1(=O)=O (centres unmarked) [P.61]
> 80%: [2] | [3] | [4]

Cc1cc2c(c(C(=O)NC(C)C)c1NC(=O)c1cc(C(F)(F)F)nn1-c1ncccc1Cl)OC(F)(F)O2 [P.44]
> 80%: all assays above

CNC(=O)c1c(NC(=O)c2cc(OC)nn2-c2ncccc2Cl)c(Br)cc2c1OC(F)(F)O2 [P.39]
> 80%: all assays above

CNC(=O)c1c(NC(=O)c2cc(OC)nn2-c2ncccc2Cl)c(C)cc2c1OC(F)(F)O2 [P.35]
> 80%: [2] | [3] | [4]

O=C(NC1(C2CC2)CC1)c1c(NC(=O)c2cc(C(F)(F)F)nn2-c2ncccc2Cl)c(Cl)cc2c1C(O)CC2 (centres unmarked) [P.51]
> 80%: [2] | [3] | [4]

O=C1CCc2cc(Cl)c(NC(=O)c3cc(Br)nn3-c3ncccc3Cl)c(C(=O)NC3(C4CC4)CC3)c21 [P.53]
> 80%: [2]

CCc1cc2c(c(C(=O)NC(C)C)c1NC(=O)c1cc(Br)nn1-c1ncccc1Cl)OC(F)(F)O2 [P.34]
> 80%: [2] | [3] | [4]

O=C(NC1(C2CC2)CC1)c1c(NC(=O)c2cc(Br)nn2-c2ncccc2Cl)c(Cl)cc2c1C(F)CC2 (centres unmarked) [P.55]
> 80%: [2] | [3] | [4]

CNC(=O)c1c(NC(=O)c2cc(Cl)nn2-c2ncccc2Cl)c(Cl)cc2c1OCO2 [P.9]
> 80%: [2] | [3] | [4]

CC(C)NC(=O)c1c(NC(=O)c2cc(Br)nn2-c2ncccc2Cl)c(Cl)cc2c1C(O)CC2 (centres unmarked) [P.54]
> 80%: [1] | [2] | [4]

CCNC(=O)c1c(NC(=O)c2cc(OCC(F)(F)F)nn2-c2ncccc2Cl)c(Cl)cc2c1OCO2 [P.58]
> 80%: [2] | [3] | [4]

CCNC(=O)c1c(NC(=O)c2cc(C(F)F)nn2-c2ncccc2Cl)c(C)cc2c1OCO2 [P.72]
> 80%: [2] | [3] | [4]
